For the experiment, the system named is PpArsN1, the AST-selective N-acetyltransferase. Description: Enzymatic N-acetylation of AST by PpArsN1 (HPLC-ICP-MS). The format is biochemical, Pseudomonas putida KT2440. On the procedure: Enzymatic N-acetylation of AST (1). PpArsN1, the AST-selective N-acetyltransferase from Pseudomonas putida KT2440, was purified. […] The reaction solution was filtered using an Amicon Ultra centrifugal filter with a 3K cutoff membrane (MilliporeSigma), and arsenic species in the filtrate were analyzed by HPLC-ICP-MS.

Each structure is given as a SMILES string.

`C[As](=O)(O)CCC(N)C(=O)O` (centres unmarked) [sAST]: the “conversion to L-N-Ac-AST by PpArsN1” value (10 μM AST, 0.2 μM PpArsN1, 0.2 mM AcCoA, 37° C., 30 min (FIG. 23)) came out at 50%. `C[As](=O)(O)CCC(N)C(=O)O` (centres unmarked) [bAST]: the “conversion to L-N-Ac-AST by PpArsN1 (in words)” value (PpArsN1/AcCoA, HPLC-ICP-MS (FIG. 23)) was “nearly completely converted”.
